Results reported in patent publication US8399476B2, “Imidazo[1,2-a]pyridines and their use as pharmaceuticals” (Sanofi, priority 2007, dated 2013).
Counter-ions that a name gives are not always drawn.

Tested on: eNOS promoter
Test: Activation of eNOS transcription (eNOS promoter firefly luciferase reporter gene assay)
Format: cell-based
Details: human endothelial cell line stably transfected with eNOS promoter-luciferase construct, 18 h incubation; read-out: EC50 values of transcription induction ratios (TIR)
Experimental: Activation of eNOS transcription was measured as described in detail by Li et al., “Activation of protein kinase C alpha and/or epsilon enhances transcription of the human endothelial nitric oxide synthase gene”, Mol. Pharmacol. 53 (1998) 630. Briefly, a 3.5 kB long fragment 5′ of the starting codon of the eNOS gene was cloned, sequenced and cloned in firefly luciferase expression plasmids to monitor activation of the eNOS promoter by reporter gene activity. A human endothelial cell line stable transfected and expressing this promoter-reporter construct was used for compound testing. Cells were incubated for 18 h with the compounds.
All compounds were dissolved in sterile dimethyl sulfoxide (DMSO). A final concentration of 0.5% DMSO in complete medium was allowed. Induction of reporter gene expression in these cells was measured using a standard luciferase assay system (Promega, Cat. No. E150) according to the manufacturer's instructions. Luciferase induction in cells incubated with compounds were compared to those incubated with solvent alone. The ratio of both activities (transcription induction ratio, TIR) was plotted as a function of compound concentration. Typically, TIR values started at low concentrations at a ratio of 1, indicating no compound effect, and extended up to a maximum TIR value TIR(max) which indicates the increase of the eNOS transcription. EC50 values of transcription induction ratios as a function of compound concentration were determined graphically.

Compound | EC50
COC(=O)c1ccc2nc(-c3ccc(F)cc3)cn2c1 [Example 1, 2-(4-Fluoro-phenyl)-imidazo[1,2-a]pyridine-6-carboxylic acid methyl ester] | < 500 nM
COC(=O)c1ccc2nc(-c3ccc(Br)cc3)c(C)n2c1 [Example 2, 2-(4-Bromo-phenyl)-3-methyl-imidazo[1,2-a]pyridine-6-carboxylic acid methyl ester] | < 500 nM
COC(=O)c1ccc2nc(-c3ccccc3)c(C)n2c1 [Example 3, 3-Methyl-2-phenyl-imidazo[1,2-a]pyridine-6-carboxylic acid methyl ester] | < 500 nM
COC(=O)c1ccc2nc(-c3ccccc3F)cn2c1 [Example 5, 2-(2-Fluoro-phenyl)-imidazo[1,2-a]pyridine-6-carboxylic acid methyl ester] | < 500 nM
COC(=O)c1ccc2nc(-c3ccc(C)cc3)cn2c1 [Example 7, 2-p-Tolyl-imidazo[1,2-a]pyridine-6-carboxylic acid methyl ester] | < 500 nM
COC(=O)c1ccc2nc(-c3cccc([N+](=O)[O-])c3)cn2c1 [Example 8, 2-(3-Nitro-phenyl)-imidazo[1,2-a]pyridine-6-carboxylic acid methyl ester] | < 500 nM
COC(=O)c1ccc2nc(-c3ccc(OC)cc3)cn2c1 [Example 10, 2-(4-Methoxy-phenyl)-imidazo[1,2-a]pyridine-6-carboxylic acid methyl ester] | < 500 nM
COC(=O)c1ccc2nc(-c3ccc(Br)cc3)cn2c1 [Example 12, 2-(4-Bromo-phenyl)-imidazo[1,2-a]pyridine-6-carboxylic acid methyl ester] | < 500 nM
COC(=O)c1ccc2nc(-c3ccccc3)cn2c1 [Example 13, 2-Phenyl-imidazo[1,2-a]pyridine-6-carboxylic acid methyl ester] | < 500 nM
COC(=O)c1ccc2nc(-c3cccc(F)c3)cn2c1 [Example 14, 2-(3-Fluoro-phenyl)-imidazo[1,2-a]pyridine-6-carboxylic acid methyl ester] | < 500 nM
COC(=O)c1ccc2nc(-c3ccc(C(F)(F)F)cc3)cn2c1 [Example 15, 2-(4-Trifluoromethyl-phenyl)-imidazo[1,2-a]pyridine-6-carboxylic acid methyl ester] | < 500 nM
COC(=O)c1ccc2nc(-c3ccc(OC(F)(F)F)cc3)cn2c1 [Example 16, 2-(4-Trifluoromethoxy-phenyl)-imidazo[1,2-a]pyridine-6-carboxylic acid methyl ester] | < 500 nM
CCN(CC)c1ccc(-c2cn3cc(C(=O)OC)ccc3n2)cc1 [Example 17, 2-(4-Diethylamino-phenyl)-imidazo[1,2-a]pyridine-6-carboxylic acid methyl ester] | < 500 nM
COC(=O)c1ccc2nc(-c3ccc(F)c(F)c3)cn2c1 [Example 19, 2-(3,4-Difluoro-phenyl)-imidazo[1,2-a]pyridine-6-carboxylic acid methyl ester] | < 500 nM
COC(=O)c1ccc2nc(-c3ccccc3Cl)cn2c1 [Example 20, 2-(2-Chloro-phenyl)-imidazo[1,2-a]pyridine-6-carboxylic acid methyl ester] | < 500 nM
COC(=O)c1ccc2nc(-c3ccc(Br)c(S(N)(=O)=O)c3)cn2c1 [Example 21, 2-(4-Bromo-3-sulfamoyl-phenyl)-imidazo[1,2-a]pyridine-6-carboxylic acid methyl ester] | < 500 nM
COC(=O)c1ccc2nc(-c3cccc(C#N)c3)cn2c1 [Example 23, 2-(3-Cyano-phenyl)-imidazo[1,2-a]pyridine-6-carboxylic acid methyl ester] | < 500 nM
COC(=O)c1ccc2nc(-c3cccc(Br)c3)cn2c1 [Example 24, 2-(3-Bromo-phenyl)-imidazo[1,2-a]pyridine-6-carboxylic acid methyl ester] | < 500 nM
COC(=O)c1ccc2nc(-c3ccc(C)cc3C)cn2c1 [Example 25, 2-(2,4-Dimethyl-phenyl)-imidazo[1,2-a]pyridine-6-carboxylic acid methyl ester] | < 500 nM
COC(=O)c1ccc2nc(-c3ccc(Cl)cc3Cl)cn2c1 [Example 28, 2-(2,4-Dichloro-phenyl)-imidazo[1,2-a]pyridine-6-carboxylic acid methyl ester] | < 500 nM
COC(=O)c1ccc2nc(-c3cccc(Cl)c3)cn2c1 [Example 31, 2-(3-Chloro-phenyl)-imidazo[1,2-a]pyridine-6-carboxylic acid methyl ester] | < 500 nM
COC(=O)c1ccc2nc(-c3cc(F)cc(F)c3)cn2c1 [Example 32, 2-(3,5-Difluoro-phenyl)-imidazo[1,2-a]pyridine-6-carboxylic acid methyl ester] | < 500 nM
COC(=O)c1ccc2nc(-c3cccc(C(F)(F)F)c3)cn2c1 [Example 33, 2-(3-Trifluoromethyl-phenyl)-imidazo[1,2-a]pyridine-6-carboxylic acid methyl ester] | < 500 nM

Next, values leading:

EC50 | Compound
< 500 nM | COC(=O)c1ccc2nc(-c3ccc4c(c3)OCCO4)cn2c1 [Example 34, 2-(2,3-Dihydro-benzo[1,4]dioxin-6-yl)-imidazo[1,2-a]pyridine-6-carboxylic acid methyl ester]
< 500 nM | COC(=O)c1ccc2nc(-c3ccc(-c4ccccc4)cc3)cn2c1 [Example 37, 2-Biphenyl-4-yl-imidazo[1,2-a]pyridine-6-carboxylic acid methyl ester]
< 500 nM | COC(=O)c1ccc2nc(-c3ccc([N+](=O)[O-])cc3)cn2c1 [Example 38, 2-(4-Nitro-phenyl)-imidazo[1,2-a]pyridine-6-carboxylic acid methyl ester]
< 500 nM | COC(=O)c1ccc2nc3c(n2c1)Cc1ccccc1-3 [Example 42, 11H-Indeno[1′,2′:4,5]imidazo[1,2-a]pyridine-8-carboxylic acid methyl ester]
< 500 nM | COC(=O)c1ccc2nc(-c3ccc(N)cc3)cn2c1 [Example 44, 2-(4-Amino-phenyl)-imidazo[1,2-a]pyridine-6-carboxylic acid methyl ester]
< 500 nM | Cc1ccc(-c2cn3cc(C(=O)O)ccc3n2)cc1 [Example 46, 2-p-Tolyl-imidazo[1,2-a]pyridine-6-carboxylic acid]
< 500 nM | N#Cc1ccc2nc(-c3ccc(F)cc3)cn2c1 [Example 52, 2-(4-Fluoro-phenyl)-imidazo[1,2-a]pyridine-6-carbonitrile]
< 500 nM | CCN(CC)c1ccc(-c2cn3cc(C#N)ccc3n2)cc1 [Example 53, 2-(4-Diethylamino-phenyl)-imidazo[1,2-a]pyridine-6-carbonitrile trifluoroacetic acid salt]
< 500 nM | Cc1ccc(-c2cn3cc(C#N)ccc3n2)cc1 [Example 54, 2-p-Tolyl-imidazo[1,2-a]pyridine-6-carbonitrile]
< 500 nM | N=C(NO)c1ccc2nc(-c3ccc(F)cc3)cn2c1 [Example 56, 2-(4-Fluoro-phenyl)-N-hydroxy-imidazo[1,2-a]pyridine-6-carboxamidine]
< 500 nM | Cc1ccc(-c2cn3cc(/C(N)=N/O)ccc3n2)cc1 [Example 57, N-Hydroxy-2-p-tolyl-imidazo[1,2-a]pyridine-6-carboxamidine]
< 500 nM | CCOC(=O)ONC(=N)c1ccc2nc(-c3ccc(F)cc3)cn2c1 [Example 60, 2-(4-Fluoro-phenyl)-N-ethoxycarbonyloxy-imidazo[1,2-a]pyridine-6-carboxamidine]
< 500 nM | Fc1ccc(-c2cn3cc(Br)ccc3n2)cc1 [Example 61, 6-Bromo-2-(4-fluoro-phenyl)-imidazo[1,2-a]pyridine]
< 500 nM | Nc1ccc2nc(-c3ccc(F)cc3)cn2c1 [Example 66, 2-(4-Fluoro-phenyl)-imidazo[1,2-a]pyridin-6-ylamine]
< 500 nM | O=CNc1ccc2nc(-c3ccc(F)cc3)cn2c1 [Example 67, N-[2-(4-Fluoro-phenyl)-imidazo[1,2-a]pyridin-6-yl]-formamide]
